Assay results reported in patent publication US7026360B1, “Pharmaceutical compositions containing compounds with activity for the enhancement of absorption of active ingredients” (Inpharma S.A., priority 1999, dated 2006).

Experiment: Absorption after 8 hours of topical antiinflammatory formulations with or without 3% PFPE through pig skin, Franz cells (Example C)
Assay type: in vitro ADME
Conditions: topical formulation; for mcg of permeated active ingredient after 8 hours, Base formula: base formula without PFPE
Experimental: Apparatus: Franz Cells (manufacturer: Crown Glass Company Inc., New Jersey) Franz diffusion cells are one of the main systems used for the investigation of ex-vivo permeation. This study involved the use of three cells each with a 9 mm diameter donor compartment corresponding with a diffusion area of 64 mm^2. The receptor compartment has a capacity of 4.8 ml. The receptor chamber is heated to 37° C.± 1. The pig skin is placed between the donor compartment and the receptor chamber with the external skin surface facing the upper compartment. The test formulation is placed inside the donor compartment. The receptor chamber is filled with a phosphate buffer solution at pH 7.4 and at intervals between 0.5 and 8 hours, 2 ml of solution are drawn from this chamber. When each sample is taken fresh buffer solution heated to 37° C. is added in order to replenish the initial volume. The samples are then tested using a HPLC method. Each test is repeated three times. Verification of absorption after 8 hours, of topical formulations containing antiinflammatory drugs versus formulations which also contain 3% PFPE, through pig skin, using Franz cells, as described in Example A.

CN1C(C(=O)Nc2ccccn2)=C(O)c2ccccc2S1(=O)=O [Piroxicam]
mcg of permeated active ingredient after 8 hours, Base formula + 3% PFPE: 7.94 µg | mcg of permeated active ingredient after 8 hours, Base formula: 1.19 µg

CCc1cccc2c3c([nH]c12)C(CC)(CC(=O)O)OCC3 (centres unmarked) [Etodolic Acid]
mcg of permeated active ingredient after 8 hours, Base formula + 3% PFPE: 9.93 µg | mcg of permeated active ingredient after 8 hours, Base formula: 0.53 µg

CC(C)Cc1ccc(C(C)C(=O)O)cc1 (centres unmarked) [Ibuprofen]
mcg of permeated active ingredient after 8 hours, Base formula + 3% PFPE: 6.84 µg | mcg of permeated active ingredient after 8 hours, Base formula: 0.21 µg

O=C(O)Cc1ccccc1Nc1c(Cl)cccc1Cl [Diclofenac Sodium]
mcg of permeated active ingredient after 8 hours, Base formula + 3% PFPE: 8.66 µg | mcg of permeated active ingredient after 8 hours, Base formula: 1.82 µg
